Results: publication PMC10610188, “Structure–Activity Relationship Studies of Chalcones and Diarylpentanoids with Antitumor Activity: Potency and Selectivity Optimization” (Pharmaceuticals, 2023)
Like-named read-outs stand apart in the source and are kept apart here.

Key:
HCT116 p53^−/− cells [1] = experiment: SRB growth inhibition assay in HCT116 p53-/- cells; type: cell-based, human; settings: for SI1: Selective index 1: GI50 of HCT116 p53^−/−/GI50 of HCT116 p53^+/+; for GI50: Homo sapiens, HCT-116, SRB assay, 48 h of treatment
Method: (§1) To study the in vitro antitumor potential of chalcone CM-M345 (1) and diarylpentanoid BP-C4 (2) analogues, the sulforhodamine B (SRB) assay was used to evaluate the antiproliferative activity in human colorectal HCT116 cancer cells. To assess their cytotoxicity toward normal cells, the antiproliferative effect of these compounds was also tested in human fibroblasts HFF-1 cells. In order to confirm if inhibition of proliferation was associated with p53 activation in HCT116 p53^+/+ cells, all compounds were also tested in HCT116 cells in which p53 was knocked out (HCT116 p53^−/−) and the selective index was calculated and compared to the compounds CM-M345 (1) and BP-C4 (2), for which p53-dependent antiproliferative activity was previously reported by our research group (Table 1).
(§2) The colorectal adenocarcinoma HCT116 cells (HCT116 p53^+/+) and its p53-null isogenic derivative (HCT116 p53^−/−) were given by Prof. Vogelstein (The Johns Hopkins Kimmel Cancer Center, Baltimore, USA); the normal human fibroblasts HFF-1 cell lines were from ATCC (Rockville, MD, USA). Human cells were cultured in RPMI-1640 with UltraGlutamine (Lonza, VWR, Portugal) with 10% FBS (Gibco, Alfagene, Portugal) at 37 °C with 5% CO2. The SH-SY5Y cells were cultured in DMEM/F-12 (Lonza) and 10% FBS and 2mM L-glutamine (Gibco). The cells were incubated at 37 °C in a humidified atmosphere of 5% CO2. Mycoplasma was routinely checked using the MycoAlert™ PLUS kit (Lonza). […]

HFF-1 cells [2] = experiment: SRB growth inhibition assay in normal fibroblasts HFF-1; type: cell-based, human; settings: for SI2: Selective index 2: GI50 of HFF-1/GI50 of HCT116 p53^+/+; for GI50: Homo sapiens, HFF-1, SRB assay, 48 h of treatment
Method: as §1, §2

HCT116 p53^+/+ cells [3] = settings: SRB assay, cited from earlier work
HCT116 p53^−/− cells [4] = settings: SRB assay, cited from earlier work
HFF-1 cells [5] = test system: HFF-1 cells; parameters: method as in Moreira et al. [21]; settings: SRB assay; ref Moreira et al. [21]; cited from earlier work
human cancer cells = test system: human cancer cells; parameters: method as in PMID 34170069, doi:10.1016/j.arabjc.2016.04.015; settings: read-out: GI50 against human cancer cells; cited from earlier work
HCT116 p53^+/+ cells [6] = experiment: SRB growth inhibition assay in HCT116 p53+/+ cells; type: cell-based, human; settings: for GI50: SRB assay, 48 h of treatment
Method: as §1, §2

p53–MDM2 interaction = target: T1, p53–MDM2 interaction (Homo sapiens, UniProt Q00987); experiment: Yeast-based p53-MDM2 interaction screening assay; type: cell-based; settings: 10 μM
T1 construct: expressed in transfected cells; host or cells: Saccharomyces cerevisiae strain CG379
From the text: The possible activation of p53 by inhibiting its interaction with MDM2 was investigated using the yeast-based screening assay previously developed by our group. In this assay, compounds that inhibit p53–MDM2 interaction will re-establish the p53-induced growth-inhibitory effect, which was abolished by MDM2 [43].
In the yeast targeted screening assay, Saccharomyces cerevisiae (strain CG379) expressing human wt p53 alone and combined with human MDM2 were used as described. For the expression of human proteins (routinely grown in minimal selective medium), the cells were diluted to 0.05 OD600 in the selective induction medium with 2% (w/w) galactose, 1% (w/w) raffinose, 0.7% (w/w) yeast nitrogen base without amino acids from Difco (Quilaban, Sintra, Portugal), and all the amino acids necessary for yeast growth ([…]) except leucine and tryptophan. The yeast cells were incubated at 30 °C under continuous orbital shaking (200 rpm) with […] compounds or 0.1% DMSO only for over 42 h. Yeast growth was analyzed by counting the number of colony-forming units (CFUs) after 2 days of incubation at 30 °C on Sabouraud Dextrose Agar from Liofilchem (Frilabo, Porto, Portugal).

HCT116 p53^+/+ cells [7] = experiment: Annexin V-FITC apoptosis analysis by flow cytometry; type: cell-based, human; settings: 5 µM, 48 h
Method: The 1.5 × 10^5 HCT116 p53^+/+ cells/well were seeded in 6-well plates and then treated with 5 µM 17 for 48 h. For the apoptosis analysis, an Annexin V-FITC Apoptosis Detection Kit I (BD Biosciences, Franklin Lakes, NJ, USA) was used following the manufacturer’s instructions. An AccuriTM C6 flow cytometer and the BD Accuri C6 software were used for data acquisition.

PARP = experiment: Western blot, PARP cleavage; type: cell-based, human; settings: 5 µM, 48 h, HCT116 p53^+/+
Method: (§3) For Western blotting, 1.5 × 10^5 cells (per well) of HCT116 p53^+/+ cells were seeded in six-well plates and allowed to adhere for 24 h, followed by treatment with 5 μM 17 for 48 h. Protein extracts obtained from the human cancer cells were quantified using the Pierce™ BCA Protein Assay Kit (Thermo Scientific, Taper, Sintra, Portugal), according to the manufacturer’s instructions. The proteins were then run in SDS-PAGE and transferred to a Whatman nitrocellulose membrane from Protan (VWR, Carnaxide, Portugal). Proteins were detected using the primary antibodies anti-p53 (Santa Cruz Biotechnology, Dallas, TX, USA, SC-126, 1:5000), anti-BCL-2 (Santa Cruz Biotechnology, SC-7382, 1:200), anti-PARP (Cell Signaling, #9542, 1:1000), and anti-GAPDH (Santa Cruz Biotechnology, SC-32233, 1:10,000), followed by HRP-conjugated secondary antibodies anti-mouse (Santa Cruz Biotechnology, SC-2005, 1:2500) and anti-rabbit (Santa Cruz Biotechnology, SC-2006, 1:2500). GAPDH was used as a loading control. The signal was detected with an ECL Amersham kit from GE Healthcare (VWR) and the ChemiDoc™ MP Imaging System (Bio-Rad, Amadora, Portugal).

Bcl-2 = experiment: Western blot, Bcl-2 protein levels; type: cell-based, human; settings: 5 µM, 48 h, HCT116 p53^+/+
Method: as §3

p53 = experiment: Western blot, p53 protein levels; type: cell-based, human; settings: 5 µM, 48 h, HCT116 p53^+/+
Method: as §3

T1 sequence (Q00987 whole entry): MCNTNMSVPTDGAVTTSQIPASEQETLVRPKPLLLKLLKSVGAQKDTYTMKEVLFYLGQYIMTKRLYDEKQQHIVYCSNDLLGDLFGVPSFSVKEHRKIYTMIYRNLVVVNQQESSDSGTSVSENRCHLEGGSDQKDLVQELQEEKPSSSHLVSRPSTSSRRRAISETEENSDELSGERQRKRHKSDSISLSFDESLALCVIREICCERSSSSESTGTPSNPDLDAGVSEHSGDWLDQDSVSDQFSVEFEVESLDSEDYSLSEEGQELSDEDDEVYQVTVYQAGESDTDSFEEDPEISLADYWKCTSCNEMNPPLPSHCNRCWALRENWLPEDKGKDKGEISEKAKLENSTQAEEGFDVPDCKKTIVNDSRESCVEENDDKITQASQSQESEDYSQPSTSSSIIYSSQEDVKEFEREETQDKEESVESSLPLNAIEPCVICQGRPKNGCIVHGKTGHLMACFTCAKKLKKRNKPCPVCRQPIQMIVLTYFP

Row | SMILES | GI50 (HCT116 p53^+/+ cells [6]; Homo sapiens, HCT-116, 48 h) | GI50 (HCT116 p53^−/− cells [1]) | melting point | GI50 (HCT116 p53^+/+ cells [6]) | SI1: Selective index 1 (HCT116 p53^−/− cells [1]) | SI2: Selective index 2 (HFF-1 cells [2]) | GI50 (HFF-1 cells [2]) | also measured
1 | O=C1/C(=C/c2ccc(Cl)cc2)COC/C1=C\c1ccc(Cl)cc1 [BP-C4 (2), 3,5-bis((E)-4-chlorobenzylidene)tetrahydro-4H-pyran-4-one] | – | – | – | – | 1.62 | 5.79 | – | GI50 (HCT116 p53^+/+ cells [3]; ref Moreira et al. [21]): 6.25 ± 1.18 µM; GI50 (HCT116 p53^−/− cells [4]; ref Moreira et al. [21]): 10.1 ± 0.47 µM; GI50 (HFF-1 cells [5]): 36.2 ± 5.54 µM; GI50 (human cancer cells): 6.25 µM
2 | COc1cc(/C=C2\COC/C(=C\c3cc(OC)c(OC)c(OC)c3)C2=O)cc(OC)c1OC [BP-M345 (1), reference compound] | – | – | – | – | – | – | – | GI50 (HCT116 p53^+/+ cells [3]; ref Moreira et al. [21]): 0.17 µM
3 | CCCc1c(OC)ccc(C(=O)/C=C/c2cc(OC)c(OC)c(OC)c2)c1O [CM-M345 (1), (E)-1-(2-hydroxy-4-methoxy-3-propylphenyl)-3-(3,4,5-trimethoxyphenyl)prop-2-en-1-one] | – | – | – | – | – | 2.96 | 7.7 ± 0.8 µM | GI50 (HCT116 p53^+/+ cells [3]; ref Pereira et al. [23]): 2.6 ± 0.2 µM; GI50 (HCT116 p53^−/− cells [4]; ref Pereira et al. [23]): 3.4 ± 0.1 µM
4 | O=C1/C(=C/c2ccc(Cl)cc2)CSc2ccccc21 [Compound 16] | 0.69 ± 0.07 µM | 7.95 ± 0.85 µM | 139 to 141 °C | – | 11.5 | 5.25 | 3.62 ± 0.99 µM | antiproliferative activity compared to BP-C4 (2) (HCT116 p53^+/+ cells [6]; HCT116 p53^+/+): nine-fold higher; selectivity for p53 compared to BP-C4 (2) (HCT116 p53^−/− cells [1]; HCT116 p53^+/+ over p53^−/−): seven-fold increased; effect on growth of control yeast (vectors) or yeast expressing p53 only (p53–MDM2 interaction): without interfering with the growth; inhibition of the p53–MDM2 interaction in yeast co-expressing p53 and MDM2 (p53–MDM2 interaction): behaved as a potential inhibitor of the p53-MDM2 interaction
5 | CCCc1c(OC)ccc(C(=O)/C=C/c2ccc(F)cc2)c1O [Compound 33, (E)-3-(4-fluorophenyl)-1-(2-hydroxy-4-methoxy-3-propylphenyl)prop-2-en-1-one] | 9.25 ± 0.75 µM | 7.2 ± 0.32 µM | 115 to 117 °C | – | 0.77 | 0.89 | 8.23 ± 0.08 µM | –
6 | CC(C)=CCOc1ccc(/C=C2\COC/C(=C\c3ccc(OCC=C(C)C)cc3)C2=O)cc1 [Compound 40, 3,5-bis((E)-4-((3-methylbut-2-en-1-yl)oxy)benzylidene)tetrahydro-4H-pyran-4-one] | 9.51 µM | 5.8 ± 0.21 µM | 145 to 147 °C | 9.53 ± 0.25 µM | 0.61 | 1.48 | 14.1 ± 0.08 µM | –

Now from value to molecule, other results behind:

Row | GI50 (HCT116 p53^+/+ cells [6]; Homo sapiens, HCT-116, 48 h) | GI50 (HCT116 p53^−/− cells [1]) | melting point | GI50 (HCT116 p53^+/+ cells [6]) | SMILES | SI1: Selective index 1 (HCT116 p53^−/− cells [1]) | SI2: Selective index 2 (HFF-1 cells [2]) | GI50 (HFF-1 cells [2]) | also measured
7 | 2.8 µM | 3.55 ± 0.05 µM | – | 2.18 ± 0.59 µM | O=C(/C=C/c1ccc(Cl)cc1)/C=C/c1ccc(Cl)cc1 [Compound 17] | 1.63 | 12.43 | 27.1 ± 1.25 µM | GI50 value in HFF-1 cells relative to HCT116 p53^+/+ cells (fold higher) (HFF-1 cells [2]): 12 fold; apoptosis (annexin-positive cells) (HCT116 p53^+/+ cells [7]): induced apoptosis; PARP cleavage (Western blot) (PARP): PARP cleavage; Bcl-2 protein levels (Western blot) (Bcl-2): depletion of the protein levels of the anti-apoptotic protein Bcl-2; p53 protein levels (Western blot) (p53): did not interfere with the p53 protein levels
8 | 18.5 ± 0.35 µM | 11.5 ± 0.145 µM | 115 to 116 °C | – | CCCc1c(OC)ccc(C(=O)/C=C/c2ccc(Br)cc2)c1O [Compound 34, (E)-3-(4-bromophenyl)-1-(2-hydroxy-4-methoxy-3-propylphenyl)prop-2-en-1-one] | 0.62 | 0.80 | 14.9 ± 0.232 µM | –
9 | 5.1 to 10.7 µM | 14.3 ± 1.1 µM | 129 to 131 °C | 5.1 ± 0.32 µM | CCCc1c(OC)ccc(C(=O)/C=C/c2ccc(N3CCOCC3)cc2)c1O [Compound 36, (E)-1-(2-hydroxy-4-methoxy-3-propylphenyl)-3-(4-morpholinophenyl)prop-2-en-1-one] | – | 3.08 | 15.7 ± 2.8 µM | inhibition of the p53–MDM2 interaction in yeast co-expressing p53 and MDM2 (p53–MDM2 interaction): seems not to be related to the inhibition of p53–MDM2 interaction
